Measurements from paper PMC3466204 (PLoS ONE, 2012).
Values joined by “and” are separate entries in the source; they are usually repeats but may differ in a detail not shown here. Equal entries are not always repeated. Ends that are not written are not given here.

Experiments:
C. sakazakii DPC 6440 [1] = test: Broth MIC, Gram negative; type: cell-based, Cronobacter sakazakii; settings: cells washed in 10 mM SPB pH 7.4, 2×10^5 CFU/mL, 2 h RT with peptide, then double strength LB, RT overnight, mean of triplicate assays
Experimental: (§1) Minimum inhibitory concentration determinations for Gram negative strains were carried out in triplicate in 96 well microtitre plates. Briefly, bacteria (E. coli, C. sakazakii and Salmonella) grown to mid-logarithmic phase were harvested by centrifugation, washed with 10 mM SPB at pH 7.4, and diluted to 2×10^5 colony-forming units (CFU)/mL in SPB. Nisin and nisin derivative peptides were resuspended in sterile HPLC water and 50 µL aliquots were added to wells containing 50 µL of 2×10^5 CFU of bacteria. Plates were incubated at RT for two hours with agitation. Double strength Luria–Bertani (LB) broth (100 µL) was added and the plates were incubated at RT overnight, the MIC was taken as the lowest concentration at which growth was inhibited.

E. coli 0157-H7 = test: Broth MIC, Gram negative; type: cell-based; settings: cells washed in 10 mM SPB pH 7.4, 2×10^5 CFU/mL, 2 h RT with peptide, then double strength LB, RT overnight, mean of triplicate assays
Experimental: as §1

[2] = test system: Salmonella enterica serovar Typhimurium UK1; test: Broth MIC, Gram negative; type: cell-based; settings: cells washed in 10 mM SPB pH 7.4, 2×10^5 CFU/mL, 2 h RT with peptide, then double strength LB, RT overnight, mean of triplicate assays
Experimental: as §1

C. sakazakii DPC 6440 [3] = test: Agarose gel diffusion assay, peptide alone or with polymyxin B nonapeptide (PMBN); type: cell-based, Cronobacter sakazakii
Experimental: Agarose-based deferred antagonism assays were carried out as follows: GM17/LB (0.03%) underlay was prepared with 10 mM sodium phosphate buffer (SPB) at pH 7.4 to which was added agarose (1% w/v agarose), autoclaved and cooled to 50°C. Bacteria grown to mid-logarithmic phase were harvested by centrifugation and washed with 10 mM SPB at pH 7.4. Bacteria were then added to 15 mls cooled underlay medium to reach a concentration of 2×10^7 colony-forming units (CFU)/mL. The inoculated medium was rapidly transferred into sterile Petri plates, allowed to solidify and dried. Wells (4.6 mm in diameter) were then made in the seeded plates. 10 µl volumes of cell-free supernatant from overnight nisin derivative producing cultures or resuspended purified peptides were then added to the wells and the plates incubated at 30°C (L. lactis) or 37°C (Gram positive strains) or RT (Gram negative strains) for 3 hours. Polymyxin B (Sigma Aldrich) was used at a concentration of 20 µg/ml. The plates were then overlaid with 15 mls of autoclaved double strength GM17 (L. lactis) or LB (Gram negatives) agarose (1% w/v agarose) overlay medium precooled to 50°C. The plates were then incubated overnight at the relevant temperature.
Polymyxin B (PMB) is a cyclic lipodecapaptide produced by bacteria of the genus Paenibacillus that acts primarily on the Gram negative cell wall, leading to rapid permeability changes in the cytoplasmic membrane and ultimately cell death. […] To that end, C. sakazakii DPC 6440 cells were treated with purified nisin A, S29G and S29A peptides alone (30 µM) or in combination with PMBN at a concentration of 20 µg/ml and determined the antimicrobial activity by agarose gel diffusion assay (Fig. 5). […] When used in combination with PMBN, a substantial synergistic effect was clearly evident (Fig. 5) but in this instance no significant difference in efficacy was observed between nisin A or either of the derivatives S29A or S29G.

L. monocytogenes LO28 = test: Deferred antagonism assay of producing strains; type: cell-based; settings: L. monocytogenes LO28, data not shown
Experimental: (§2) Deferred antagonism assays were performed by replicating strains on GM17 agar plates and allowing them to grow overnight before overlaying with either GM17/BHI/TSB-YE/MH agar (0.75% w/v agar) seeded with the appropriate indicator strain. For higher throughput screening of the S29X bank, deferred antagonism assays were performed by replicating strains using a 96 pin replicator (Boekel) or spotting 5 µl of a fresh overnight culture on GM17 agar plates and allowing them to grow overnight. Following overnight growth the strains were subjected to UV radiation for 30 minutes prior to overlaying with either GM17/BHI/TS/MH agar (0.75% w/v agar) seeded with the appropriate indicator.

S. aureus RF122 = test: Deferred antagonism assay of producing strains; type: cell-based
Experimental: as §2

S. aureus SA113 = test: Deferred antagonism assay of producing strains; type: cell-based; settings: zone of inhibition around producer colony
Experimental: as §2

## S29G: bioengineered nisin A derivative with a serine to glycine change at position 29 (ITSISLCTPGCKTGALMGCNMKTATCHCGIHVSK; thioether (positions not given here); not fully specified (residues 2, 5, 33, bridges); UniProt P13068 24-57, looked up, variant S29G)
C. sakazakii DPC 6440 [1]
  MIC: 6.28 mg/L and 1.875 µM
E. coli 0157-H7
  MIC: 25.14 mg/L and 7.5 µM
[2]
  MIC: 50.28 mg/L and 15 µM
C. sakazakii DPC 6440 [3]; purified peptide 30 µM alone
  Total area of inhibitory zone, peptide alone: 48.2±0.7 mm^2
C. sakazakii DPC 6440 [3]; purified peptide 30 µM in combination with polymyxin B nonapeptide (PMBN) 20 µg/ml
  Total area of inhibitory zone, peptide + PMBN: 118.6±5.0 mm^2
L. monocytogenes LO28
  Bioactivity of producer relative to nisin A producer: comparable to that of nisin A
S. aureus RF122
  Bioactivity of producer relative to nisin A producer: increases the bioactivity
S. aureus SA113
  Bioactivity of producer relative to nisin A producer: enhanced activity
